The values that follow are results of earlier work, collected in patent publication US9144554B2, “Topical compositions for use in the prevention and/or treatment of dermatitis” (priority 2011, dated 2015).

The conditions of this data set: medicaments used to treat dermatitis.

With ivermectin, the Toxicity result is listed as “toxic”. `CN(Cc1cnc2nc(N)nc(N)c2n1)c1ccc(C(=O)N[C@@H](CCC(=O)O)C(=O)O)cc1` [methotrexate]: the Toxicity result is “toxic”.
